Measurements taken from article PMC3399817 (PLoS ONE, 2012).

Assays:
Format in all cases: cell-based
[1] = tested on: phospho-Iκβα (Ser32/Ser36); assay: Bio-Plex phospho-Iκβα; settings: HKe-3 cells, 1 µM
Method: (§1) The Bio-Plex assay system was used to measure signaling in drug-treated cells. Briefly, cells were incubated in the presence of drug for various amounts of time and then lysed in Bio-Rad cell lysis buffer (Bio-Rad). Protein quantification was performed using BCA assay (Pierce) and 5 µg of protein from each sample was used for Bio-Plex analysis. Phospho-signaling assays were performed using available phospho-signaling assay kits and quantified on a Bio-Plex 200 system (Bio-Rad): p-Iκβα (Ser32/Ser36), p-JNK (Thr183/Tyr185), p-MEK1 (Ser217/Ser221), p-ERK1/2 (Thr202/Tyr204, Thr185/Tyr187), p-p90RSK (Thr359/Ser363), p-p38 (Thr180/Tyr182), p-c-JUN (Ser63), p-ATF2 (Thr71), p-AKT (Ser473), p-S6 (Ser235/Ser236), p-STAT3 (Ser727), p-STAT3 (Tyr705), and p-GSK3α/β (Ser21/Ser9). Bio-Plex assay for total MEK1 was also performed as a loading control.

[2] = tested on: phospho-JNK (Thr183/Tyr185); assay: Bio-Plex phospho-JNK; settings: HKe-3 cells, 1 µM
Method: as §1

[3] = tested on: phospho-MEK1 (Ser217/Ser221) and phospho-ERK1/2 (Thr202/Tyr204, Thr185/Tyr187); assay: Bio-Plex phospho-MEK1 and phospho-ERK1/2; settings: 45 minute exposure, 1 µM, K-RAS wild-type and mutant cells
Method: as §1

HCT-116 (K-RAS^G13D/+) = assay: Cell viability (Syto60); settings: 72 hours, HCT-116 compared to HKe-3, normalized to DMSO
Method: (§2) All colon cancer cell lines were maintained in DMEM supplemented with penicillin (100 units/mL), streptomycin (100 μg/mL), and 10% fetal bovine serum (FBS). The rectal cancer cell line (Car1) was maintained in DMEM/F12 supplemented with penicillin (100 units/mL)/streptomycin (50 μg/mL), and 5% FBS. […] The target sequences for knockdowns can be found in Table S2. In drug treatment experiments, cells were plated for 24 hours prior to exposure to drug. AZ-628 was obtained from AstraZeneca. CI-1040 was obtained from Pfizer. R406 was synthesized in the Gray laboratory. BAY61-3606 and IKK VII were purchased from EMD Biosciences. BAY derivatives were synthesized for this study.
(§3) Cell cycle analysis was performed via FACS-based propidium iodide quantification, using standard methods. To measure cell viability, cells were grown in 96-well plates in the presence or absence of drug for 72 hours, fixed with 4% paraformaldehyde, and then stained with Syto60 (Invitrogen). Plates were imaged and quantified using the LiCor Odyssey system (LiCor).

HKe-3 (K-RAS^−/+) = assay: Cell viability (Syto60); settings: 72 hours; for cooperation with / sensitization to AZ-628 (cell viability): K-RAS wild-type cells (HKe-3), 1 µM AZ-628
Method: as §2, §3

DKs-8 = assay: Cell viability (Syto60); settings: DKs-8, 72 hours, 1 μM
Method: as §2, §3

DLD-1 cells = assay: Cell viability (Syto60); settings: DLD-1, 72 hours, 1 μM
Method: as §2, §3

[4] = tested on: colorectal cancer cells expressing mutant B-RAF (V600E) (HT-29, RKO); assay: Cell viability (Syto60); settings: HT-29 and RKO, 72 hours
Method: as §2, §3

HT-29 (B-RAF^V600E/+) = assay: Cell cycle analysis (propidium iodide FACS); settings: cell lines that express mutant B-RAF (HT-29)
Method: as §3

Cc1ccc(NC(=O)c2cccc(C(C)(C)C#N)c2)cc1Nc1ccc2ncn(C)c(=O)c2c1 [AZ-628]
Iκβα phosphorylation [1]: further induced | JNK activation [2]: strongly activated | MEK and ERK phosphorylation [3]: suppressed MEK and ERK phosphorylation | sensitivity of cells expressing mutant K-RAS (cell viability) (HCT-116 (K-RAS^G13D/+)): relatively sensitive

Oc1c2ccccc2c2c3c(cccc13)N=N2 [SP600125]
cooperation with / sensitization to AZ-628 (cell viability) (HKe-3 (K-RAS^−/+)): did not affect AZ-628 sensitivity

O=C(c1ccc(Nc2nccc(-c3cc4ccccc4s3)n2)cc1)N1CCC(N2CCCC2)CC1 [IKK inhibitor VII]
sensitization to AZ-628 (cell viability) (HKe-3 (K-RAS^−/+); HKe-3 cells with MAP4K2 knockdown, 1 µM + 1 µM AZ-628): abrogated the ability of IKK inhibitor VII to sensitize | cooperation with / sensitization to AZ-628 (cell viability) (HKe-3 (K-RAS^−/+)): enhanced the effect of AZ-628

COc1cc(Nc2ncc(F)c(Nc3ccc4c(n3)NC(=O)C(C)(C)O4)n2)cc(OC)c1OC [R406]
sensitivity (cell viability) (DKs-8): did not exhibit sensitivity | sensitivity (cell viability) (DLD-1 cells): did not exhibit sensitivity

O=C(NOCC1CC1)c1ccc(F)c(F)c1Nc1ccc(I)cc1Cl [CI-1040]
sensitivity of cells expressing mutant K-RAS (cell viability) (HCT-116 (K-RAS^G13D/+)): insensitive | cell viability, combination of BAY61-3606 and CI-1040 [4]: cooperated to produce an enhanced response | sensitivity of cells expressing mutant B-RAF (cell viability) ([4]; single agent): sensitive | cell cycle effect (HT-29 (B-RAF^V600E/+)): induced G1 arrest
